According to patent US20250136570A1 (Tango Therapeutics, Inc., priority 2021, published 2025):
pIC50: −log10 of the molar value.

How the values were obtained:
HDAC3/NCor2 = HDAC3/NCor2 (Homo sapiens (Human), UniProt O15379); assay: HDAC3 inhibition, Fluor de Lys fluorescent enzyme assay; assay type: biochemical; settings: 3 hours pre-incubation at room temp; 1.2 nM enzyme; 16 μM Fluor de Lys substrate; duplicate
Method in brief: (§1)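 Enzyme (HDAC1 6 nM, HDAC3/NCor2 1.2 nM final) pre-incubated with compound 3 h at ~22 °C in Tris pH 8 buffer with 0.01% BSA. Reaction run 1 h with 16 μM Fluor de Lys substrate and stopped with TSA-containing developer. Fluorescence read at Ex 360/Em 460; IC50 from an occupancy equation with Hill coefficient, in duplicate.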

Recombinant HDAC1 = Recombinant HDAC1 (Homo sapiens (Human), UniProt Q13547); assay: HDAC1 inhibition, Fluor de Lys fluorescent enzyme assay; assay type: biochemical; settings: 3 hours pre-incubation at room temp; 6 nM enzyme; 16 μM Fluor de Lys substrate; duplicate
Chain of Recombinant HDAC1 (Q13547 whole entry): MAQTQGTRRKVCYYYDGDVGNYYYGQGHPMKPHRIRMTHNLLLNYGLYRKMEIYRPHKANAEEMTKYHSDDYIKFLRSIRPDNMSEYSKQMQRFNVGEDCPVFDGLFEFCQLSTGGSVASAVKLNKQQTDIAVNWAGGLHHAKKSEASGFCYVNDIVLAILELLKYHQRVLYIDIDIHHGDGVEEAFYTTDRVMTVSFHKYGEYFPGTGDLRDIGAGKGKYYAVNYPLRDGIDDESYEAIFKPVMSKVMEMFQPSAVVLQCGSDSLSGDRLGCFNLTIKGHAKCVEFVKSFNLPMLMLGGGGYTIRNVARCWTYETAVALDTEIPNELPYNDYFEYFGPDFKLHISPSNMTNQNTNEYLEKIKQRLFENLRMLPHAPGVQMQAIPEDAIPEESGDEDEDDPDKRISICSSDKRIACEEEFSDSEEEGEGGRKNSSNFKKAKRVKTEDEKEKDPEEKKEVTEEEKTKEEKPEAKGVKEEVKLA
Method in brief: as §1

Chain of HDAC3/NCor2 (O15379 whole entry): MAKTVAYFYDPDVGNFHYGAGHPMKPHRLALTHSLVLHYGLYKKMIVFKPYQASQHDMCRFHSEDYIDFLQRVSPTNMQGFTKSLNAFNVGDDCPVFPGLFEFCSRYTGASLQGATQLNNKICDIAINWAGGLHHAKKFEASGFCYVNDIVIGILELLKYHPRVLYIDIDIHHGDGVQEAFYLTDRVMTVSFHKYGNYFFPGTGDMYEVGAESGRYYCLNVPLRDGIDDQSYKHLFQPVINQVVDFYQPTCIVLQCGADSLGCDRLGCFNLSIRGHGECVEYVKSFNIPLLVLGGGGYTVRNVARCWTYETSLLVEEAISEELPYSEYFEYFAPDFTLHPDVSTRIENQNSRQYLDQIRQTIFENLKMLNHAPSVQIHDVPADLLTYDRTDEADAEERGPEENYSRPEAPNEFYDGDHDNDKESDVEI
Chain of HDAC3/NCor2 (Q9Y618 395-489 partner): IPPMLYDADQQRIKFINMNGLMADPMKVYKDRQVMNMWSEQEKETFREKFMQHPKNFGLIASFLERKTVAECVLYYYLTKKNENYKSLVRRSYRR

Row | SMILES | pIC50 (HDAC3/NCor2) | pIC50 (Recombinant HDAC1)
1 | CS(=N)(=O)c1ccc2oc(C(=O)Nc3cc(-c4ccc(F)cc4)ccc3N)cc2n1 (centres unmarked) [Compound 189, N-[2-amino-5-(4-fluorophenyl)phenyl]-5-(methylsulfonimidoyl)furo[3,2-b]pyridine-2-carboxamide] | 5.70 to 6.30 | > 7.00
2 | N=S(=O)(c1ccc(C(=O)Nc2cc(-c3ccc(F)cc3)ccc2N)cc1)c1cnccc1C1CC1 (centres unmarked) [Compound 191, N-[2-amino-5-(4-fluorophenyl)phenyl]-4-[(4-cyclopropyl-3-pyridyl)sulfonimidoyl]benzamide] | 5.70 to 6.30 | > 7.00
3 | N=S(=O)(c1ccc(C(=O)Nc2cc(-c3ccc(F)cc3)ccc2N)cc1)c1ccc(=O)[nH]c1 (centres unmarked) [Compound 192, N-[2-amino-5-(4-fluorophenyl)phenyl]-4-[(6-oxo-1H-pyridin-3-yl)sulfonimidoyl]benzamide] | 5.70 to 6.30 | > 7.00
4 | CCS(=N)(=O)c1ccc(C(=O)Nc2cc(-c3ccc(F)cc3)ccc2N)cc1 (centres unmarked) [Compound 194, N-[2-amino-5-(4-fluorophenyl)phenyl]-4-(ethylsulfonimidoyl)benzamide] | 5.70 to 6.30 | > 7.00
5 | N=S(=O)(c1ccc(C(=O)Nc2cc(-c3ccc(F)cc3)ccc2N)cc1)c1ccccc1F (centres unmarked) [Compound 197, N-[2-amino-5-(4-fluorophenyl)phenyl]-4-[(2-fluorophenyl)sulfonimidoyl]benzamide] | 6.30 to 7.00 | > 7.00
6 | CS(=N)(=O)c1cnc2cc(C(=O)Nc3cc(-c4ccc(F)cc4)ccc3N)sc2c1 (centres unmarked) [Compound 200, N-[2-amino-5-(4-fluorophenyl)phenyl]-6-(methylsulfonimidoyl)thieno[3,2-b]pyridine-2-carboxamide] | 5.70 to 6.30 | > 7.00
7 | CS(=N)(=O)c1cnc2sc(C(=O)Nc3cc(-c4ccc(F)cc4)ccc3N)cc2c1 (centres unmarked) [Compound 202, N-[2-amino-5-(4-fluorophenyl)phenyl]-5-(methylsulfonimidoyl)thieno[2,3-b]pyridine-2-carboxamide] | < 5.70 | > 7.00
8 | Nc1ccc(-c2ccc(Cl)cc2)cc1NC(=O)c1ccc(S2(=O)=NCCC2)cc1 (centres unmarked) [Compound 203, N-[2-amino-5-(4-chlorophenyl)phenyl]-4-(1-oxo-4,5-dihydro-3H-isothiazol-1-yl)benzamide] | < 5.70 | > 7.00
9 | N=S(=O)(c1ccc(C(=O)Nc2cc(-c3ccc(F)cc3)ccc2N)cc1)c1ccc(C(F)(F)F)nc1 (centres unmarked) [Compound 205, N-[2-amino-5-(4-fluorophenyl)phenyl]-4-[[6-(trifluoromethyl)-3-pyridyl]sulfonimidoyl]benzamide] | < 5.70 | > 7.00
10 | CCN=S(C)(=O)c1ccc2sc(C(=O)Nc3cc(-c4ccc(F)cc4)ccc3N)cc2c1 (centres unmarked) [Compound 207, N-[2-amino-5-(4-fluorophenyl)phenyl]-5-(N-ethyl-S-methyl-sulfonimidoyl)benzothiophene-2-carboxamide] | 5.70 to 6.30 | > 7.00
11 | Nc1ccc(-c2ccc(F)cc2)cc1NC(=O)c1cc2cc(S3(=O)=NCCC3)ccc2o1 (centres unmarked) [Compound 210] | 5.70 to 6.30 | > 7.00
12 | CS(=O)(=NC1CC1)c1ccc2sc(C(=O)Nc3cc(-c4ccc(F)cc4)ccc3N)cc2c1 (centres unmarked) [Compound 211, N-[2-amino-5-(4-fluorophenyl)phenyl]-5-(N-cyclopropyl-S-methyl-sulfonimidoyl)benzothiophene-2-carboxamide] | 5.70 to 6.30 | > 7.00
13 | N=S(=O)(c1ccc(F)cc1)c1ccc(C(=O)Nc2cc(-c3ccc(F)cc3)ccc2N)cc1 (centres unmarked) [Compound 214, N-[2-amino-5-(4-fluorophenyl)phenyl]-4-[(4-fluorophenyl)sulfonimidoyl]benzamide] | 5.70 to 6.30 | > 7.00
14 | N=S(=O)(c1ccc(C(=O)Nc2cc(-c3ccc(F)cc3)ccc2N)cn1)c1cnc[nH]1 (centres unmarked) [Compound 219, N-[2-amino-5-(4-fluorophenyl)phenyl]-6-(1H-imidazol-5-ylsulfonimidoyl)pyridine-3-carboxamide] | 5.70 to 6.30 | > 7.00
15 | N=S(=O)(c1ccc(C(=O)Nc2cc(-c3ccc(F)cc3)ccc2N)cc1)c1ccc(F)c(F)c1 (centres unmarked) [Compound 221, N-[2-amino-5-(4-fluorophenyl)phenyl]-4-[(3,4-difluorophenyl)sulfonimidoyl]benzamide] | 5.70 to 6.30 | > 7.00
16 | [2H]c1c([2H])c(-c2ccc(N)c(NC(=O)c3ccc(S(C)(=N)=O)cc3)c2)c([2H])c([2H])c1F (centres unmarked) [Compound 223, N-[2-amino-5-(2,3,5,6-tetradeutero-4-fluoro-phenyl)phenyl]-4-(methylsulfonimidoyl)benzamide] | 5.70 to 6.30 | > 7.00
17 | N=S(=O)(c1ccc2sc(C(=O)Nc3cc(-c4ccc(F)cc4)ccc3N)cc2c1)C1CC1 (centres unmarked) [Compound 224, N-[2-amino-5-(4-fluorophenyl)phenyl]-5-(cyclopropylsulfonimidoyl)benzothiophene-2-carboxamide] | 5.70 to 6.30 | > 7.00

Other lines, results leading:

Row | pIC50 (HDAC3/NCor2) | pIC50 (Recombinant HDAC1) | SMILES
18 | 5.70 to 6.30 | > 7.00 | Cc1ncccc1S(=N)(=O)c1ccc(C(=O)Nc2cc(-c3ccc(F)cc3)ccc2N)cc1 (centres unmarked) [Compound 190, N-[2-amino-5-(4-fluorophenyl)phenyl]-4-[(2-methyl-3-pyridyl)sulfonimidoyl]benzamide]
19 | < 5.70 | > 7.00 | COCCOCc1cncc(S(=N)(=O)c2ccc(C(=O)Nc3cc(-c4ccc(F)cc4)ccc3N)cc2)c1 (centres unmarked) [Compound 193, N-[2-amino-5-(4-fluorophenyl)phenyl]-4-[[5-(2-methoxyethoxymethyl)-3-pyridyl]sulfonimidoyl]benzamide]
20 | 5.70 to 6.30 | > 7.00 | N=S(=O)(c1ccc(C(=O)Nc2cc(-c3ccc(F)cc3)ccc2N)cc1)c1cnccn1 (centres unmarked) [Compound 195, N-[2-amino-5-(4-fluorophenyl)phenyl]-4-(pyrazin-2-ylsulfonimidoyl)benzamide]
21 | 5.70 to 6.30 | > 7.00 | Cc1ccncc1S(=N)(=O)c1ccc(C(=O)Nc2cc(-c3ccc(F)cc3)ccc2N)cc1 (centres unmarked) [Compound 198, N-[2-amino-5-(4-fluorophenyl)phenyl]-4-[(4-methyl-3-pyridyl)sulfonimidoyl]benzamide]
22 | 5.70 to 6.30 | > 7.00 | Cc1cncc(S(=N)(=O)c2ccc(C(=O)Nc3cc(-c4ccc(F)cc4)ccc3N)cc2)c1 (centres unmarked) [Compound 199, N-[2-amino-5-(4-fluorophenyl)phenyl]-4-[(5-methyl-3-pyridyl)sulfonimidoyl]benzamide]
23 | 5.70 to 6.30 | > 7.00 | N=S(=O)(c1ccc(C(=O)Nc2cc(-c3ccc(F)cc3)ccc2N)cc1)c1cncc(F)c1 (centres unmarked) [Compound 206, N-(4-amino-4′-fluoro-[1,1′-biphenyl]-3-yl)-4-(5-fluoropyridine-3-sulfonimidoyl)benzamide]
24 | 5.70 to 6.30 | > 7.00 | N=S(=O)(c1ccc(C(=O)Nc2cc(-c3ccc(F)cc3)ccc2N)cc1)c1ccc(CO)nc1 (centres unmarked) [Compound 208]
25 | 6.30 to 7.00 | > 7.00 | Cc1nc[nH]c1S(=N)(=O)c1ccc(C(=O)Nc2cc(-c3ccc(F)cc3)ccc2N)cc1 (centres unmarked) [Compound 209, N-[2-amino-5-(4-fluorophenyl)phenyl]-4-[(4-methyl-1H-imidazol-5-yl)sulfonimidoyl]benzamide]
26 | 5.70 to 6.30 | > 7.00 | Cc1cccc(S(=N)(=O)c2ccc(C(=O)Nc3cc(-c4ccc(F)cc4)ccc3N)cc2)n1 (centres unmarked) [Compound 215, N-[2-amino-5-(4-fluorophenyl)phenyl]-4-[(6-methyl-2-pyridyl)sulfonimidoyl]benzamide]
27 | 5.70 to 6.30 | > 7.00 | N=S(=O)(c1ccc(C(=O)Nc2cc(-c3ccc(F)cc3)ccc2N)cc1)c1cccc(F)c1 (centres unmarked) [Compound 216, N-[2-amino-5-(4-fluorophenyl)phenyl]-4-[(3-fluorophenyl)sulfonimidoyl]benzamide]
28 | 6.30 to 7.00 | > 7.00 | Cc1ncc(S(=N)(=O)c2ccc(C(=O)Nc3cc(-c4ccc(F)cc4)ccc3N)cc2)[nH]1 (centres unmarked) [Compound 217, N-[2-amino-5-(4-fluorophenyl)phenyl]-4-[(2-methyl-1H-imidazol-5-yl)sulfonimidoyl]benzamide]
29 | 5.70 to 6.30 | > 7.00 | COc1ncc(S(=N)(=O)c2ccc(C(=O)Nc3cc(-c4ccc(F)cc4)ccc3N)cc2)cn1 (centres unmarked) [Compound 218, N-[2-amino-5-(4-fluorophenyl)phenyl]-4-[(2-methoxypyrimidin-5-yl)sulfonimidoyl]benzamide]
30 | 5.70 to 6.30 | > 7.00 | COc1ccc(S(=N)(=O)c2ccc(C(=O)Nc3cc(-c4ccc(F)cc4)ccc3N)cc2)cn1 (centres unmarked) [Compound 222, N-[2-amino-5-(4-fluorophenyl)phenyl]-4-[(6-methoxy-3-pyridyl)sulfonimidoyl]benzamide]
31 | 5.70 to 6.30 | > 7.00 | C=C(C)c1cncc(S(=N)(=O)c2ccc(C(=O)Nc3cc(-c4ccc(F)cc4)ccc3N)cc2)c1 (centres unmarked) [Compound 225, N-[2-amino-5-(4-fluorophenyl)phenyl]-4-[(5-isopropenyl-3-pyridyl)sulfonimidoyl]benzamide]
32 | 5.70 to 6.30 | > 7.00 | CC(C)c1cncc(S(=N)(=O)c2ccc(C(=O)Nc3cc(-c4ccc(F)cc4)ccc3N)cc2)c1 (centres unmarked) [Compound 226, N-[2-amino-5-(4-fluorophenyl)phenyl]-4-[(5-isopropyl-3-pyridyl)sulfonimidoyl]benzamide]
33 | 5.70 to 6.30 | > 7.00 | N=S(=O)(c1ccc(C(=O)Nc2cc(-c3ccc(F)cc3)ccc2N)cc1)c1cnccc1O (centres unmarked) [Compound 227, N-[2-amino-5-(4-fluorophenyl)phenyl]-4-[(4-hydroxy-3-pyridyl)sulfonimidoyl]benzamide]
34 | 6.30 to 7.00 | > 7.00 | Cc1cnc(S(=N)(=O)c2ccc(C(=O)Nc3cc(-c4ccc(F)cc4)ccc3N)cc2)[nH]1 (centres unmarked) [Compound 228, N-[2-amino-5-(4-fluorophenyl)phenyl]-4-[(5-methyl-1H-imidazol-2-yl)sulfonimidoyl]benzamide]
